Experimental findings from patent publication US20260274892A1, “MACROCYCLIC BROAD SPECTRUM ANTIBIOTICS” (RQx Pharmaceuticals, Inc., priority 2017, published 2026) are described below.

In assay [1] the test system is Methicillin Resistant Staphylococcus aureus strain USA 200. The assay can be described thus: Minimum inhibitory concentration (MIC), CLSI broth micro-dilution, S. aureus. Type of assay: cell-based. The following applies: Staphylococcus aureus, MRSA / USA200; Table 6; MRSA USA 200; cation adjusted Mueller Hinton Broth + 0.002% Tween-80; 35° C., 22 hours. The procedure, abridged:
(§1)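 Colonies grown 20 h at 35° C on Trypticase Soy agar (MRSA) or Luria agar (E. coli) were suspended in cation-adjusted Mueller Hinton broth with 0.002% Tween-80. Suspensions were added at OD600 0.0005 to 10-point twofold compound dilutions, then incubated 22 h at 35° C.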

Assay [2] concerns Escherichia coli ATCC 25922. In words: Minimum inhibitory concentration (MIC), CLSI broth micro-dilution, E. coli. In kind it is cell-based. To be noted: Escherichia coli, ATCC25922, 22 h, Table 6, cation adjusted Mueller Hinton Broth + 0.002% Tween-80, 35° C. The procedure, abridged: as §1

Molecules are shown by their SMILES.

For `Cc1cc(-c2ccc(C(C)(C)C)cc2F)nc(C)c1C(=O)N[C@@H](CCN)C(=O)N(C)[C@@H]1C(=O)N[C@@H](C)C(=O)N[C@H](C(=O)NCC#N)Cc2ccc(OCCN)c(c2)-c2cc1ccc2OCCN` (racemic) [Compound 363, rac-(8S,11S,14S)-3,18-bis(2-aminoethoxy)-N-(cyanomethyl)-11-methyl-14-[methyl-[rac-(2S)-4-amino-2-[[6-(4-tert-butyl-2-fluoro-phenyl)-2,4-dimethyl-pyridine-3-carbonyl]amino]butanoyl]amino]-10,13-dioxo-9,12-diazatricyclo[13.3.1.12,6]icosa-1(18),2(20),3,5,15(19),16-hexaene-8-carboxamide], the MIC in assay [1] was found to be 0.016 µM; in assay [2], 0.19 µM.

For the molecule `Cc1cc(-c2ccc(OC3CCCCC3)cc2)nc(C)c1C(=O)N[C@@H](CCN)C(=O)N(C)[C@@H]1C(=O)N[C@@H](C)C(=O)N[C@H](C(=O)NCC#N)Cc2ccc(OCCN)c(c2)-c2cc1ccc2OCCN` (racemic) [Compound 364, rac-(8S,11S,14S)-3,18-bis(2-aminoethoxy)-N-(cyanomethyl)-11-methyl-14-[methyl-[rac-(2S)-4-amino-2-[[6-[4-(cyclohexoxy)phenyl]-2,4-dimethyl-pyridine-3-carbonyl]amino]butanoyl]amino]-10,13-dioxo-9,12-diazatricyclo[13.3.1.12,6]icosa-1(18),2(20),3,5,15(19),16-hexaene-8-carboxamide], the figures for the MIC in assay [1] and in assay [2] were 0.016 µM and 0.25 µM, respectively.

As for `CCCCc1ccc(-c2cc(C)c(C(=O)N[C@@H](CCN)C(=O)N(C)[C@@H]3C(=O)N[C@@H](C)C(=O)N[C@H](C(=O)NCC#N)Cc4ccc(OCCN)c(c4)-c4cc3ccc4OCCN)c(C)n2)cc1` (racemic) [Compound 366, rac-(8S,11S,14S)-3,18-bis(2-aminoethoxy)-N-(cyanomethyl)-11-methyl-14-[methyl-[rac-(2S)-4-amino-2-[[6-(4-butylphenyl)-2,4-dimethyl-pyridine-3-carbonyl]amino]butanoyl]amino]-10,13-dioxo-9,12-diazatricyclo[13.3.1.12,6]icosa-1(18),2(20),3,5,15(19),16-hexaene-8-carboxamide], the MIC in assay [1] amounted to 0.016 µM; in assay [2], 0.13 µM.

Consider `Cc1cc(-c2ccc(C(C)(C)C)cc2N)nc(C)c1C(=O)N[C@@H](CCN)C(=O)N(C)[C@@H]1C(=O)N[C@@H](C)C(=O)N[C@H](C(=O)NCC#N)Cc2ccc(OCCN)c(c2)-c2cc1ccc2OCCN` (racemic) [Compound 369, rac-(8S,11S,14S)-3,18-bis(2-aminoethoxy)-N-(cyanomethyl)-11-methyl-14-[methyl-[rac-(2S)-4-amino-2-[[6-(2-amino-4-tert-butyl-phenyl)-2,4-dimethyl-pyridine-3-carbonyl]amino]butanoyl]amino]-10,13-dioxo-9,12-diazatricyclo[13.3.1.12,6]icosa-1(18),2(20),3,5,15(19),16-hexaene-8-carboxamide], for which the MIC in assay [1] was determined as 0.047 µM; in assay [2], 0.75 µM.

As for `Cc1cc(-c2ccc(C(C)(C)C)cc2)cc(C)c1C(=O)N[C@@H](CCN)C(=O)N(C)[C@@H]1C(=O)N[C@@H](C)C(=O)N[C@H](C(=O)NCC#N)Cc2ccc(OCCN)c(c2)-c2cc1ccc2OCCN` (racemic) [Compound 370, rac-(8S,11S,14S)-3,18-bis(2-aminoethoxy)-N-(cyanomethyl)-11-methyl-14-[methyl-[rac-(2S)-4-amino-2-[[4-(4-tert-butylphenyl)-2,6-dimethyl-benzoyl]amino]butanoyl]amino]-10,13-dioxo-9,12-diazatricyclo[13.3.1.12,6]icosa-1(18),2(20),3,5,15(19),16-hexaene-8-carboxamide], the figures for the minimum inhibitory concentration (MIC) in assay [1] and in assay [2] were 0.031 µM and 0.19 µM, respectively.

Take `C[C@@H]1NC(=O)[C@@H](N(C)C(=O)[C@H](CCN)NC(=O)c2ccc(-c3ccc(C(C)(C)C)cc3)cc2Cl)c2ccc(OCCN)c(c2)-c2cc(ccc2OCCN)C[C@@H](C(=O)NCC#N)NC1=O` (racemic) [Compound 371, rac-(8S,11S,14S)-3,18-bis(2-aminoethoxy)-N-(cyanomethyl)-11-methyl-14-[methyl-[rac-(2S)-4-amino-2-[[4-(4-tert-butylphenyl)-2-chloro-benzoyl]amino]butanoyl]amino]-10,13-dioxo-9,12-diazatricyclo[13.3.1.12,6]icosa-1(18),2(20),3,5,15(19),16-hexaene-8-carboxamide]: the MIC was found to be 0.031 µM in assay [1] and 0.19 µM in assay [2].

As to `C[C@@H]1NC(=O)[C@@H](N(C)C(=O)[C@H](CCN)NC(=O)c2ccc(-c3ccc(C(C)(C)C)cc3)cc2N)c2ccc(OCCN)c(c2)-c2cc(ccc2OCCN)C[C@@H](C(=O)NCC#N)NC1=O` (racemic) [Compound 372, rac-(8S,11S,14S)-3,18-bis(2-aminoethoxy)-N-(cyanomethyl)-11-methyl-14-[methyl-[rac-(2S)-4-amino-2-[[2-amino-4-(4-tert-butylphenyl)benzoyl]amino]butanoyl]amino]-10,13-dioxo-9,12-diazatricyclo[13.3.1.12,6]icosa-1(18),2(20),3,5,15(19),16-hexaene-8-carboxamide], the MIC in assay [1] came out at 0.023 µM; in assay [2] it was 0.38 µM.

On to `Cc1cc(Oc2ccc(C(C)(C)C)cc2)cc(C)c1C(=O)N[C@@H](CCN)C(=O)N(C)[C@@H]1C(=O)N[C@@H](C)C(=O)N[C@H](C(=O)NCC#N)Cc2ccc(OCCN)c(c2)-c2cc1ccc2OCCN` (racemic) [Compound 375, rac-(8S,11S,14S)-3,18-bis(2-aminoethoxy)-N-(cyanomethyl)-11-methyl-14-[methyl-[rac-(2S)-4-amino-2-[[4-(4-tert-butylphenoxy)-2,6-dimethyl-benzoyl]amino]butanoyl]amino]-10,13-dioxo-9,12-diazatricyclo[13.3.1.12,6]icosa-1(18),2(20),3,5,15(19),16-hexaene-8-carboxamide], for which the MIC was 0.031 µM in assay [1] and 0.5 µM in assay [2].

For the molecule `C[C@@H]1NC(=O)[C@@H](N(C)C(=O)[C@H](CCN)NC(=O)c2ccc(Oc3ccc(C(C)(C)C)cc3)cc2Cl)c2ccc(OCCN)c(c2)-c2cc(ccc2OCCN)C[C@@H](C(=O)NCC#N)NC1=O` (racemic) [Compound 376, rac-(8S,11S,14S)-3,18-bis(2-aminoethoxy)-N-(cyanomethyl)-11-methyl-14-[methyl-[rac-(2S)-4-amino-2-[[4-(4-tert-butylphenoxy)-2-chloro-benzoyl]amino]butanoyl]amino]-10,13-dioxo-9,12-diazatricyclo[13.3.1.12,6]icosa-1(18),2(20),3,5,15(19),16-hexaene-8-carboxamide], the MIC stood at 0.016 µM in assay [1] and 0.25 µM in assay [2].

Take `CCCCc1ccc(Oc2ccc(C(=O)N[C@@H](CCN)C(=O)N(C)[C@@H]3C(=O)N[C@@H](C)C(=O)N[C@H](C(=O)NCC#N)Cc4ccc(OCCN)c(c4)-c4cc3ccc4OCCN)c(Cl)c2)cc1` (racemic) [Compound 377, rac-(8S,11S,14S)-3,18-bis(2-aminoethoxy)-N-(cyanomethyl)-11-methyl-14-[methyl-[rac-(2S)-4-amino-2-[[4-(4-butylphenoxy)-2-chloro-benzoyl]amino]butanoyl]amino]-10,13-dioxo-9,12-diazatricyclo[13.3.1.12,6]icosa-1(18),2(20),3,5,15(19),16-hexaene-8-carboxamide]: the figures for the MIC in assay [1] and in assay [2] were 0.031 µM and 0.5 µM, respectively.

Take `CCCCc1ccc(Oc2ccc(C(=O)N[C@@H](CCN)C(=O)N(C)[C@@H]3C(=O)N[C@@H](C)C(=O)N[C@H](C(=O)NCC#N)Cc4ccc(OCCN)c(c4)-c4cc3ccc4OCCN)c(Cl)c2)cc1CCCC` (racemic) [Compound 378, rac-(8S,11S,14S)-3,18-bis(2-aminoethoxy)-N-(cyanomethyl)-11-methyl-14-[methyl-[rac-(2S)-4-amino-2-[[2-chloro-4-(3,4-dibutylphenoxy)benzoyl]amino]butanoyl]amino]-10,13-dioxo-9,12-diazatricyclo[13.3.1.12,6]icosa-1(18),2(20),3,5,15(19),16-hexaene-8-carboxamide]: the MIC in assay [1] is 0.031 µM; in assay [2] it was 0.38 µM.

Regarding `CCCCCCCc1ccc(C(=O)N[C@@H](CCN)C(=O)N(C)[C@@H]2C(=O)N[C@@H](C)C(=O)N[C@H](C(=O)NCC#N)Cc3ccc(OCCN)c(c3)-c3cc2ccc3OCCN)c(OCC(=O)O)c1` (racemic) [Compound 379, 2-[5-heptyl-2-[[rac-(1S)-3-amino-1-[methyl-[rac-(7S,10S,13S)-3,18-bis(2-aminoethoxy)-13-(cyanomethylcarbamoyl)-10-methyl-8,11-dioxo-9,12-diazatricyclo[13.3.1.12,6]icosa-1(19),2,4,6(20),15,17-hexaen-7-yl]carbamoyl]propyl]carbamoyl]phenoxy]acetic acid], the MIC in assay [1] stood at 0.26 µM; in assay [2], 1 µM.

Take `CCCCCCOc1ccc(-c2cc(-c3ccc(C(=O)N[C@@H](CCN)C(=O)N(C)[C@@H]4C(=O)N[C@@H](C)C(=O)N[C@H](C(=O)NCC#N)Cc5ccc(OCCN)c(c5)-c5cc4ccc5OCCN)cc3)no2)cc1` (racemic) [Compound 380, rac-(8S,11S,14S)-3,18-bis(2-aminoethoxy)-N-(cyanomethyl)-11-methyl-14-[methyl-[rac-(2S)-4-amino-2-[[4-[5-(4-hexoxyphenyl)isoxazol-3-yl]benzoyl]amino]butanoyl]amino]-10,13-dioxo-9,12-diazatricyclo[13.3.1.12,6]icosa-1(18),2(20),3,5,15(19),16-hexaene-8-carboxamide]: the MIC in assay [1] came to 0.045 µM; in assay [2] it was 0.48 µM.
